The assay concerns HeLa t-derived AAV producer cells. The assay is described as follows: Production of rAAV-(B7.2/GM-CSF) in producer cells using different inhibitors or helper viruses (transducing rAAV titer / AAV packaging efficiency). In kind it is cell-based. To be noted: AdV MOI 10 alone or with 50 mM Na butyrate, 3 μM trichostatin A or 3 μM 5-azacytidine, or HSV-1 MOI 10 as helper virus, three days after infection. The source says:
The use, according to the invention, of the DNA methylation inhibitor leads to an increase in packaging efficiency to a level of at least 10^6, especially 10^7, preferably 10^8, in particular 10^9, transducing particles/ml of crude lyzate or of at least 10^10, especially 10^11, preferably 10^12, in particular 10^13, genomic particles/ml of crude lyzate. This corresponds to 10^5 to 10^8 genomic particles per sown cell. The packaging efficiency can be determined indirectly by using suitable cell lines to determine the transducing AAV titer. While this was effected specifically in this present case by measuring the B7.2-positive cells by fluorescence-labeling B7.2 and counting by means of FACS analysis, another common protein detection method can be used in the case of other transgenes. The transducing titer depends on the detection method and on the cell type employed, which means that it is necessary to select suitable cells when choosing the system for detecting the corresponding parvovirus or AAV serotype, for example HeLa cells in the case of AAV-2. The genomic titer is independent of the cell type. The genomic titer can be ascertained by means of real-time PCR, for example as described by Veldwijk M R et al. (2002) Mol. Ther. 6:272-8.
AdV was administered either alone or in combination with 50 mM Na butyrate (But), 3 μM trichostatin A (TSA) or 3 μM 5-azacytidine (Aza) (Sigma, Deisenhofen). “Standard” means transient cotransfection of HeLa cells with pAAV-(B7.2/GM-CSF) and the AAV-2 rep/cap helper plasmid and infection with adenovirus (AdV) (MOI 10); harvesting, 3 days after infection;
rAAV-(B7.2/GM-CSF) was initially prepared using producer cell lines (e.g. 1×10^6 cells sown in a 6 cm diameter cell culture dish, with the cells being sown 1 day before the infection) by infecting with adenovirus (multiplicity of infection, MOI 10). […] After 72 hours, the lyzates were prepared by freeze/thaw lysis and freed from the cell debris. Adenovirus […] HSV-1 was heat-inactivated at 56° C. […]

Turning to `Nc1ncn([C@@H]2O[C@H](CO)[C@@H](O)[C@H]2O)c(=O)n1` [Aza, 5-azacytidine], the “AAV packaging efficiency (yield of transducing rAAV particles)” value (“AAV packaging efficiency” for short) is on record as “restore this AAV packaging efficiency”.

Take `CCCC(=O)[O-].[Na+]` [But, Na butyrate]: the “AAV packaging efficiency” value is “did not result in an increase in AAV packaging efficiency”.

As to `CC(/C=C/C(=O)NO)=C\[C@@H](C)C(=O)c1ccc(N(C)C)cc1` [TSA, trichostatin A], the “AAV packaging efficiency” value was “did not result in an increase in AAV packaging efficiency”.
